Values quoted from earlier work as cited in patent EP2055233B1 (priority 2003, dated 2004).

Legend:
[1] = in vivo, iv

CC(C)c1cccc(C(C)C)c1O [propofol, 2,6-diisopropylphenol]
plasma concentration [1]: 1000 to 10000 ng/mL | dose recovered in urine as hydroxylated and conjugated metabolites: 88%
